Results on 5 molecules are retold here after patent US9745257B2, “Phenyl-guanidine derivatives” (Universidad Nacional de Quilmes, priority 2011, dated 2017).

Data set [1] has as its system LN229 (human glioblastoma). The data set can be described thus: Proliferation assay (MTT), LN229 cells. Format: cell-based. The note with it: LN-229, 72 h, 10% FBS. On the procedure: (§1) Cells were maintained in monolayer culture with the corresponding media, supplemented with 5% fetal bovine serum (FBS) previously inactivated with heat, 2 mM glutamine and […] gentamicine.
(§2) The cells were treated for 72 hours in the presence of FBS 10% with different doses of the compounds in 96 wells at a 2500 cell/well density. The cell growth was estimated by MTT test, for which to the cell monolayers was added MTT, incubated and resuspended in DMSO. Finally, the number of cells was estimated by measuring the absorbance values at 570 nm.
(§3) Compound (65) as a representative example of Rac1 inhibitor compounds according to the present invention was tested in cell proliferation assays performed with following cancer cell lines F3II (murine mammary carcinoma), 3LL (murine lung carcinoma), LN229 (human glioblastoma), MCF7 (human mammary carcinoma), H125 (human lung carcinoma), PC3 (human prostate adenocarcinoma) and MDA-MB-231 (human mammary carcinoma).
The cells were trated for 72 hours in the presence of FBS 10% with different doses of the compounds in 96 wells at a 2500 cell/well density. The cell growth was estimated by MTT test, for which to the cell monolayers was added MTT, incubated and resuspended in DMSO. Finally, the number of cells was estimated by measuring the absorbance values at 570 nm.

Data set [2] relates to MDA-MB-231 (human mammary carcinoma). The experiment in a line: Proliferation assay (MTT), MDA-MB-231 cells. Type of data set: cell-based. The note with it: 72 h, 10% FBS. The protocol: as §1, §2, §3
Data set [3] has as its system F3II mammary carcinoma cells. The experiment in a line: Antimetastatic effect, metastatic lung colonization by F3II cells in mice. Format: in vivo. The note with it: 25 mg/kg/day i.p., days 0 to 21, F3II cells i.v., BALB/c mice, FIG. 9. On the procedure: Specific pathogen-free female BALB/c inbred mice from UNLP (Buenos Aires, Argentina), with an age of 8-10 weeks and a average weight of 20 g, were used. They were housed in plastic cages under standard conditions and had access to rodent chow and water ad libitum. On the designated day 0 of the experiment, F3II mammary carcinoma cells were injected into the lateral tail vein of unanesthetized mice at a concentration of 2×10^5 viable cells/0.3 ml DMEM/mice. At day 21, animals were sacrificed by cervical dislocation and necropsied. To investigate the presence of lung metastasis, lungs were removed, fixed in Bouin's solution and the number of surface nodules was determined under a dissecting microscope.
(§4) To study the effect of compound (25) on metastatic lung colonization, mice were injected i.p at daily doses of 25 mg/kg body weight from days 0 to 21.

In data set [4] the test system is F3II (murine mammary carcinoma). The data set can be described thus: Proliferation assay (MTT), F3II cells. Format: cell-based. The note with it: Mus musculus, 72 h, 10% FBS. On the procedure: as §1, §2, §3
Data set [5] can be described thus: Tolerability and animal weight in mice. Type of data set: in vivo. The conditions noted are these: adult female BALB/c mice, 25 mg/kg/day i.p. On the procedure:
as §4

The target of data set [6] is T1, Rac1 (Homo sapiens, UniProt P63000).
T1 construct: endogenous in cells; host or cells: LN229 (human glioblastoma)
The experiment in a line: Pull-Down assay of intracellular active Rac levels (Rac-GTP) in LN229 cells. Format: cell-based. The conditions noted are these: 10 μM, EGF 100 ng/ml, FIG. 3. The protocol:
This assay consists in the determination of inhibition power of the compounds of the invention over the intracellular active Rac1 levels (Rac-GTP). For determining the levels of Rac-GTP, the “Pull-Down” assay was used, which is based in the conformation bond of Rac-GTP to the p21 domain of PAK1 protein, which is the direct effector of Rac-GTP (Wanf H. et al.; J. Biol. Che. 2002, 277: 4541-4550).
LN229 cells (human glioblastoma) were seeded in 6-well cell culture plaques and were kept in absence of FBS for 48 hours (starvation). Afterwards, they were treated with compounds (25) and (65) and they were stimulated for 15 minutes with EGF (100 ng/ml), washed with phosphate buffered saline (PBS) at low temperature and lysated in a buffer containing 8 μg of the fusion protein GST-PBD, […] Tris-HCl, pH 7.5, […] DTT, 5 mM MgCl2, 150 mM NaCl, 0.5% NP-40, 5 mM β-glicerophosphate and protease inhibitors (5 μg/ml 4-(2-aminoethyl)bencenesulfonyl fluoride, 5 μg (ml leupeptin, 5 μg/ml aprotinin and 1 μg/ml pepstatin A). The lysates were centrifuged at 14,000×g (4° C., 10 min) and then incubated with Glutation-Agarose Beads (GAB, Amersham Pharmacia) previously fitted with GST-Pak at 4° C. for 1 hour. After washing, the GABs were boiled for 5 minutes in loading buffer. […] The total Rac levels were analyzed in a similar way from aliquots taken from the cell lysate.

Data set [7] has as its system LN229 cells. The data set can be described thus: Cell cycle effect by flow cytometry. Format: cell-based, human. On the procedure:
The effect of compound (65) on the cell cycle was studied by flow citometry. It is known that Rac1 GTPase is related with transcription of molecules such as cyclin D1, which are required to progress from G1 phase to S phase. Inhibition of Rac1 induces cell arrest in G0-G1 phase.
LN229 cells synchronized in G0-G1 phase and stimulated for 24 hours with FBS were treated with compound (65).

Data set [8] relates to PC3 (human prostate adenocarcinoma). The data set can be described thus: Proliferation assay (MTT), PC3 cells. Type of data set: cell-based. The note with it: PC-3, 72 h, 10% FBS, average of three experiments. On the procedure: as §1, §2, §3
Data set [9] has as its system LN229 human glioblastoma cells. The experiment in a line: Polymerization of actin filaments by immunofluorescence in LN229 cells. Type of data set: cell-based. The conditions noted are these: LN229 starved 24 h, treated 1 hour, EGF stimulated, FIG. 5. On the procedure:
The effect of compound (65) over the polymerization of actin filaments was evaluated by immunofluorescence with conjugated faloidine with the fluorochrome AlexaFluor (Invitrogen). LN229 human glioblastoma cells were starvated for 24 hours, treated with compound (65) for 1 hour, and stimulated with EGF. […] An accurate sign of cellular boundaries is observed in all cells due to the cortical actin marking.

Data set [10] concerns the target T2, Rac-Tiam complex (Homo sapiens, UniProt P63000).
T2 construct: GST
The experiment in a line: Precipitation affinity of Tiam with recombinant GST-Rac (Western Blot anti Tiam1). Format: binding. The note with it: Western Blot anti Tiam1 vs. control, FIG. 2. The protocol:
Compounds (65) and (25) were tested in order to determine its inhibition power over the interaction Rac-Tiam. Thus, the precipitation affinity of Tiam with the recombinant protein GST-Rac was evaluated in presence of compound (65).

The subject of data set [11] is H125 (human lung carcinoma). The data set can be described thus: Proliferation assay (MTT), H125 cells. Type of data set: cell-based. The conditions noted are these: NCI-H125, 72 h, 10% FBS, average of three experiments. The protocol:
as §1, §2, §3

Data set [12] relates to LN229 human glioblastoma cells. The experiment in a line: Trans-well migration assay. Type of data set: cell-based. The note with it: 10 μM, 50 μM and 100 μM, 24 hours, FIG. 6. On the procedure: Cell motility is a key process in the invasion and tumor metastasis processes and it is closely regulated by the Rho-GTPases family, particularly by Rac. This assay consists in the determination of the antimigration effect of compound (65) on LN229 human glioblastoma cells.
The cell migration in vitro was measured by the trans-well migration assay, wherein LN229 cells previously treated with different concentrations (10 μM, 50 μM and 100 μM) of compound (65) and serum deprived were placed on the upper layer of a cell permeable membrane of a trans-well plaque. Following an incubation perior of 24 hours, the cells migrated through the 8 μm pores of the membrane to the lower layer.

For data set [13], the system named is 3LL (murine lung carcinoma). The data set can be described thus: Proliferation assay (MTT), 3LL cells. The note with it: Mus musculus, 72 h, 10% FBS, average of three experiments. Type of data set: cell-based. On the procedure:
as §1, §2, §3

Data set [14] has as its system MCF7 (human mammary carcinoma). The experiment in a line: Proliferation assay (MTT), MCF7 cells. Format: cell-based. The conditions noted are these: 72 h, 10% FBS, average of three experiments. The protocol: as §1, §2, §3
Setting [15] is: read-out: IC50 (μM) tested in LN229 cells (Table 2).

Like-named read-outs stand apart in the source and are kept apart here.

As for `N=C(Nc1ccccc1)Nc1ccccc1C(F)(F)F` [(27), N-phenyl-N′-[2-(trifluoromethyl)phenyl]guanidine], the melting point (in general, the temperature, or range, at which the solid turns liquid) lay within 108 to 109 °C. Besides, the IC50 (as a rule, the concentration that inhibits the measured activity by half) in data set [1] (setting [15]) was found to be 211 µM.
Take `N=C(Nc1cccc([N+](=O)[O-])c1)Nc1ccccc1C(F)(F)F` [(41), N-(3-nitrophenyl)-N′-[2-(trifluoromethyl)phenyl]guanidine]: the IC50 in [1] (setting [15]) stood at 88 µM.
The molecule `Cc1ccccc1NC(=N)Nc1ccccc1C(F)(F)F` [(64), N-(2-methylphenyl)-N′-[2-(trifluoromethyl)phenyl]guanidine] displayed a melting point of 129 °C. Besides, the IC50 in data set [1] (setting [15]) was found to be 175 µM.
Take `Cc1cc(C)cc(NC(=N)Nc2ccccc2C(F)(F)F)c1` [Compound (25), N-(3,5-dimethylphenyl)-N′-[2-(trifluoromethyl)phenyl]guanidine]: the half-maximal inhibitory concentration (IC50) in data set [1] (setting [15]) worked out at 73 µM; in [2] (read-out: IC50 values, MDA-MB-231 (Table 3)) it was 40 µM; in data set [4] (read-out: IC50 values, F3II (Table 3)) it was 36 µM. For the same molecule, the “Reduction of the formation of metastatic lung colonies” value in [3] was “about 35%”. Also, in [5], the “Changes in animal weight compared to the control group” value is “no significant changes in animal weight”. For the same molecule, the Tolerability entry in data set [5] was “well tolerated”. Further, in [6], the “Effect over the intracellular active Rac levels (Rac-GTP)” value was “inhibitory effect”.
On to `Cc1cc(C)nc(NC(=N)Nc2ccccc2C(F)(F)F)n1` [Compound (65), N-[4,6-bis(methyl)pyrimidin-2-yl]-N′-[2-(trifluoromethyl)phenyl]guanidine], for which the IC50 in data set [1] (average of three experiments, read-out: IC50 values, LN229) came out at 73 µM; in data set [2] (average of three experiments, read-out: IC50 values, MDA-MB-231), 48 µM; in data set [8], 138 µM; in [4] (average of three experiments, read-out: IC50 values, F3II) it was 61 µM; in data set [11], 127 µM; in data set [13], 68 µM. The same molecule showed a half-inhibitory concentration (IC50) in data set [14] of 44 µM. Also, in data set [7] (50 μM, LN229 synchronized in G0-G1, stimulated 24 hours with FBS, controls 25%), the “Cell population in G0-G1 phase” value is 60%. Further, the Cell cycle arrest result in data set [7] (LN229 cells, FIG. 7) was “arrests tumoral cells in G0-G1 phase in a dose dependent manner”. In addition, in data set [9], the “Intracellular fibrillar actin levels” value was “decreasing of intracellular fibrilar actin levels”. For the same molecule, the “Effect over Rac-Tiam complex (Rac interaction with the activator)” value in data set [10] is reported as “decrease of Rac interaction with the activator”. In addition, in data set [12], the Cell migration entry is “significantly decreased the cell migration in a dose dependent manner”. In addition, the “Effect over the intracellular active Rac levels (Rac-GTP)” value in [6] is given as “inhibitory effect”.
